Reference: patent US20240116985A1, “STAPLED PEPTIDES AND METHODS THEREOF” (priority 2020, published 2024)
Like-named read-outs stand apart in the source and are kept apart here.

Key:
[1] = molecular target: T1, full-length beta-Catenin (Uniprot ID P35222) (Homo sapiens, UniProt P35222); experiment: Fluorescence polarization IC50 (beta-catenin / 5FAM-TCF4 10-53 competition); format: binding
T1 construct: 10 nM full-length beta-Catenin (Uniprot ID P35222)
T1 sequence (P35222 1-781): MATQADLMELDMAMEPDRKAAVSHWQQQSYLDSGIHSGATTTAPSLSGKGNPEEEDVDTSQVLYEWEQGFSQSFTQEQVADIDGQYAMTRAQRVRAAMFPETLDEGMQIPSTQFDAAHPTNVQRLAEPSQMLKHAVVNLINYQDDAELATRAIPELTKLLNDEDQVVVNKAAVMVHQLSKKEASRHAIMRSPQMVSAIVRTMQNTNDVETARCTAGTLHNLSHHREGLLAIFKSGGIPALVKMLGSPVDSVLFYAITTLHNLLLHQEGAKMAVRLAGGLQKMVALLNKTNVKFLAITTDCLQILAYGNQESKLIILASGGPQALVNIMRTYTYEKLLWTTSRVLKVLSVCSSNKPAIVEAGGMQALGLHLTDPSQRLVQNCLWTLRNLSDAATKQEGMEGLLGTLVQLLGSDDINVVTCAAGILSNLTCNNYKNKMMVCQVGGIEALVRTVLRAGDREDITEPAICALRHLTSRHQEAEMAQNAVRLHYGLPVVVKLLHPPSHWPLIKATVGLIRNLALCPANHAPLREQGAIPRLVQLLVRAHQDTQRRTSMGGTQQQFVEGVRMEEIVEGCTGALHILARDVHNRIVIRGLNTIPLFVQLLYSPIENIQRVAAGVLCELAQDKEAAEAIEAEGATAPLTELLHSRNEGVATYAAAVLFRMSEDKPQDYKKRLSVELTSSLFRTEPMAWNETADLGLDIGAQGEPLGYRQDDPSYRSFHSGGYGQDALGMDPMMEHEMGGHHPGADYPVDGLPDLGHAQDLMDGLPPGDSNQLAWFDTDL

[2] = CHI Log D procedure; format: physicochemical; conditions: for CHI Log D: pH 7.4; for chromatographic logD: pH 7.4, CHI Log D
[3] = fluorescence polarization, beta-catenin, read-out: FP EC50
[4] = fluorescence polarization, read-out: beta-Catenin FP IC50
[5] = Table E2-1, read-out: beta-Catenin FP IC50

Row | SMILES | IC50 [1, 3] [µM] | IC50 ([1]; read-out: beta-Catenin FP IC50) [µM] | CHI Log D [2] | IC50 [1, 4] [µM] | chromatographic logD [2] | IC50 ([1]; read-out: FP EC50) [µM] | IC50 [1, 5] [µM]
1 | CCN(CC(=O)O)C[C@@H]1NC(=O)[C@H](CC(=O)O)NC(=O)C2(CCCC=CCCCOC(=O)N3CC[C@@](C(=O)N[C@@H](Cc4ccsc4)C(=O)N[C@@H](Cc4csc5ccccc45)C(=O)N[C@@H](CCC(N)=O)C(N)=O)(C3)NC(=O)[C@H](Cc3ccccc3)NC(=O)[C@H](Cc3ccccc3)NC(=O)[C@H](C)NC(=O)[C@H](C)NC1=O)CCCC=CC[C@]1(CCCN1C(C)=O)C(=O)N[C@@H](CC(=O)O)C(=O)N[C@@H](CC(C)(C)C)C(=O)N2 (stereo partly drawn) [I-970, Ac-PL3-Asp-Npg-B5-Asp-EtGA-Ala-Ala-Phe-Phe-PyrS2-3Thi-BztA-Gln-NH2] | 1.36 | 1.36 | 1.853 | – | – | – | –
2 | CC(=O)N1CCC[C@]12CC=CCCCC1(CCCC=CCCCCCC[C@@](C)(C(=O)N[C@@H](Cc3ccccc3)C(=O)N[C@@H](Cc3csc4ccccc34)C(=O)N[C@@H](CCC(N)=O)C(N)=O)NC(=O)[C@H](CC(N)=O)NC(=O)[C@H](Cc3cccc(F)c3)NC(=O)[C@H](C)NC(=O)[C@H](C)NC(=O)[C@H](CCC(=O)O)NC(=O)[C@H](CC(=O)O)NC1=O)NC(=O)[C@H](C)NC(=O)[C@H](CC(=O)O)NC2=O (stereo partly drawn) [I-454, Ac-PL3-Asp-Ala-B5-Asp-Glu-Ala-Ala-3FF-Asn-S8-Phe-BztA-Gln-NH2] | – | – | – | 0.125 | 2.05 | – | –
3 | CC[C@H](C)[C@@H]1NC(=O)[C@H](CC(=O)O)NC(=O)[C@]2(CC=CCCCC3(CCCC=CCCCCCC[C@@](C)(C(=O)N[C@@H](Cc4ccccc4)C(=O)N[C@@H](Cc4csc5ccccc45)C(=O)N[C@@H](CCC(N)=O)C(N)=O)NC(=O)[C@H](CCC(N)=O)NC(=O)[C@H](Cc4ccccc4)NC(=O)[C@H](C)NC(=O)[C@H](C)NC(=O)[C@H](CCC(=O)O)NC(=O)C[C@@H](CC(=O)O)NC3=O)NC1=O)CCCN2C(C)=O (stereo partly drawn) [I-676, Ac-PL3-Asp-Ile-B5-SbGlu-Glu-Ala-Ala-Phe-Gln-S8-Phe-BztA-Gln-NH2] | – | – | – | 5 | 2.29 | – | –
4 | CC(=O)N1CCC[C@]12CC=CCCCC1(CCCC=CCCCCCC[C@@](C)(C(=O)N[C@@H](Cc3ccccc3Cl)C(=O)N[C@@H](Cc3csc4ccccc34)C(=O)N[C@@H](CCC(N)=O)C(N)=O)NC(=O)[C@H](Cc3ccccc3)NC(=O)[C@H](Cc3ccccc3)NC(=O)[C@H](C)NC(=O)[C@H](C)NC(=O)[C@H](CN(CC(=O)O)CC(F)(F)F)NC(=O)[C@H](CC(=O)O)NC1=O)NC(=O)[C@H](CC(C)(C)C)NC(=O)[C@H](CC(=O)O)NC2=O (stereo partly drawn) [I-931, Ac-PL3-Asp-Npg-B5-Asp-TfeGA-Ala-Ala-Phe-Phe-S8-2C1F-BztA-Gln-NH2] | – | 0.221 | – | – | 3.36 | – | –
5 | CC(=O)N1CCC[C@]12CC=CCCCC1(CCCC=CCCCCCC[C@@](C)(C(=O)N[C@@H](Cc3ccccc3)C(=O)N[C@@H](Cc3csc4ccccc34)C(=O)N[C@H](Cc3c[nH]cn3)C(N)=O)NC(=O)[C@H](CC(N)=O)NC(=O)[C@H](Cc3ccccc3)NC(=O)[C@H](C)NC(=O)[C@H](C)NC(=O)[C@H](CCC(=O)O)NC(=O)[C@H](CC(=O)O)NC1=O)NC(=O)[C@H](CC(C)C)NC(=O)[C@H](CC(=O)O)NC2=O (stereo partly drawn) [I-744, Ac-PL3-Asp-Leu-B5-Asp-Glu-Ala-Ala-Phe-Asn-S8-Phe-BztA-dHis-NH2] | – | – | 2.557 | 0.112 | – | 0.112 | –
6 | CC(=O)N1CCC[C@]12CC=CCCCC1(CCCC=CCCCOC(=O)N3CC[C@@](C(=O)N[C@@H](Cc4ccsc4)C(=O)N[C@@H](Cc4csc5ccccc45)C(=O)N[C@@H](CCC(N)=O)C(N)=O)(C3)NC(=O)[C@H](Cc3ccccc3)NC(=O)[C@H](Cc3ccccc3)NC(=O)[C@H](C)NC(=O)[C@H](C)NC(=O)[C@H](Cc3ccccc3C(=O)O)NC(=O)[C@H](CC(=O)O)NC1=O)NC(=O)[C@H](CC(C)(C)C)NC(=O)[C@H](CC(=O)O)NC2=O (stereo partly drawn) [I-853, Ac-PL3-Asp-Npg-B5-Asp-2COOHF-Ala-Ala-Phe-Phe-PyrS2-3Thi-BztA-Gln-NH2] | – | 0.008 | – | – | 2.52 | – | –
7 | CC(=O)N1CCC[C@]12CC=CCCCC1(CCCC=CCCCCCC[C@@](C)(C(=O)N[C@@H](Cc3ccccc3)C(=O)N[C@@H](Cc3c[nH]c4ccccc34)C(=O)N[C@@H](CCC(N)=O)C(N)=O)NC(=O)[C@H](C(C)C)NC(=O)[C@H](Cc3ccccc3)NC(=O)[C@H](C)NC(=O)[C@H](C)NC(=O)[C@H](CCC(=O)O)NC(=O)[C@H](CC(=O)O)NC1=O)NC(=O)[C@H](C)NC(=O)[C@H](CC(=O)O)NC2=O (stereo partly drawn) [I-123, Ac-PL3-Asp-Ala-B5-Asp-Glu-Ala-Ala-Phe-Val-S8-Phe-Trp-Gln-NH2] | – | – | – | – | 1.98 | – | 2.11
8 | CC(=O)N1CCC[C@]12CC=CCCCC1(CCCC=CCCCOC(=O)N3CC[C@@](C(=O)N[C@@H](Cc4ccccc4Cl)C(=O)N[C@@H](Cc4csc5ccccc45)C(=O)N[C@@H](CCC(N)=O)C(N)=O)(C3)NC(=O)[C@H](CC(C)C)NC(=O)[C@H](Cc3ccccc3)NC(=O)[C@H](C)NC(=O)[C@H](C)NC(=O)[C@H](CC(=O)O)NC(=O)[C@H](CC(=O)O)NC1=O)NC(=O)[C@H](CC1CCCCC1)NC(=O)[C@H](CC(=O)O)NC2=O (stereo partly drawn) [I-1076, Ac-PL3-Asp-Cha-B5-Asp-Asp-Ala-Ala-Phe-Leu-PyrS2-2C1F-BztA-Gln-NH2] | 0.448 | 0.448 | 2.049 | – | – | – | –
9 | CCCC[C@@H]1NC(=O)[C@H](C)NC(=O)[C@H](CCC(=O)O)NC(=O)[C@H](CC(=O)O)NC(=O)C2(CCCC=CCCCCCC[C@@](C)(C(=O)N[C@@H](Cc3ccccc3)C(=O)N[C@@H](Cc3csc4ccccc34)C(=O)N[C@@H](CCC(N)=O)C(N)=O)NC(=O)[C@H](CCC(N)=O)NC(=O)[C@H](Cc3ccccc3)NC1=O)CCCC=CC[C@]1(CCCN1C(C)=O)C(=O)N[C@@H](CC(=O)O)C(=O)N[C@@H]([C@@H](C)CC)C(=O)N2 (stereo partly drawn) [I-666, Ac-PL3-Asp-Ile-B5-Asp-Glu-Ala-nLeu-Phe-Gln-S8-Phe-BztA-Gln-NH2] | – | – | 2.862 | 0.626 | – | 0.626 | –
10 | CC[C@H](C)[C@@H]1NC(=O)[C@H](CNS(=O)(=O)C(F)(F)F)NC(=O)[C@]2(CC=CCCCC3(CCCC=CCCCCCC[C@@](C)(C(=O)N[C@@H](Cc4ccccc4)C(=O)N[C@@H](Cc4csc5ccccc45)C(=O)N[C@@H](CCC(N)=O)C(N)=O)NC(=O)[C@H](CCC(N)=O)NC(=O)[C@H](Cc4ccccc4)NC(=O)[C@H](C)NC(=O)[C@H](C)NC(=O)[C@H](CCC(=O)O)NC(=O)[C@H](CC(=O)O)NC3=O)NC1=O)CCCN2C(C)=O (stereo partly drawn) [I-632, Ac-PL3-[Tf]Dap-Ile-B5-Asp-Glu-Ala-Ala-Phe-Gln-S8-Phe-BztA-Gln-NH2] | – | – | – | 5 | 3.15 | – | –
11 | CC(=O)N1CCC[C@]12CC=CCCCC1(CCCC=CCCCCCC[C@@](C)(C(=O)N[C@@H](Cc3ccccc3)C(=O)N[C@@H](Cc3csc4ccccc34)C(=O)N[C@@H](CCC(N)=O)C(=O)N[C@@H](C)C(N)=O)NC(=O)[C@H](CC(N)=O)NC(=O)[C@H](Cc3ccccc3)NC(=O)[C@H](C)NC(=O)[C@H](C)NC(=O)[C@H](CCC(=O)O)NC(=O)[C@H](CC(=O)O)NC1=O)NC(=O)[C@H](CC(C)C)NC(=O)[C@H](CC(=O)O)NC2=O (stereo partly drawn) [I-729, Ac-PL3-Asp-Leu-B5-Asp-Glu-Ala-Ala-Phe-Asn-S8-Phe-BztA-Gln-Ala-NH2] | – | – | 2.366 | 0.056 | – | 0.056 | –
12 | CC(=O)N1CCC[C@]12CC=CCCCC1(CCCC=CCCCCCC[C@@](C)(C(=O)N[C@@H](Cc3ccccc3)C(=O)N[C@@H](Cc3c[nH]c4ccccc34)C(=O)N[C@@H](CCC(N)=O)C(N)=O)NC(=O)[C@H](C(C)C)NC(=O)[C@H](Cc3cccc(Cl)c3)NC(=O)[C@H](C)NC(=O)[C@H](C)NC(=O)[C@H](CC(=O)O)NC(=O)[C@H](CC(=O)O)NC1=O)NC(=O)[C@H](C)NC(=O)[C@H](CC(=O)O)NC2=O (stereo partly drawn) [I-307, Ac-PL3-Asp-Ala-B5-Asp-Asp-Ala-Ala-3C1F-Val-S8-Phe-Trp-Gln-NH2] | 4.2 | – | 2.055 | – | – | – | 4.2
13 | CC(=O)N1CCC[C@]12CC=CCCCC1(CCCC=CCCCCCC[C@@](C)(C(=O)N[C@@H](Cc3cccc(F)c3)C(=O)N[C@@H](Cc3csc4ccccc34)C(=O)N[C@@H](CCC(N)=O)C(N)=O)NC(=O)[C@H](C(C)C)NC(=O)[C@H](Cc3ccccc3)NC(=O)[C@H](C)NC(=O)[C@H](C)NC(=O)[C@H](Cc3c[nH]cn3)NC(=O)[C@H](CC(=O)O)NC1=O)NC(=O)[C@H](C)NC(=O)[C@H](CC(=O)O)NC2=O (stereo partly drawn) [I-397, Ac-PL3-Asp-Ala-B5-Asp-His-Ala-Ala-Phe-Val-S8-3FF-BztA-Gln-NH2] | 2.23 | – | 2.828 | 2.23 | – | – | –
14 | CC[C@H](C)[C@@H]1NC(=O)[C@H](CC(=O)O)NC(=O)[C@]2(CC=CCCCC3(CCCC=CCCCCCC[C@@](C)(C(=O)N[C@@H](Cc4ccccc4)C(=O)N[C@@H](Cc4csc5ccccc45)C(=O)N[C@@H](CCC(N)=O)C(N)=O)NC(=O)[C@H](CCC(N)=O)NC(=O)[C@H](Cc4ccccc4)NC(=O)[C@H](C)NC(=O)[C@H](CCCCNC(=O)CN=[N+]=[N-])NC(=O)[C@H](CCC(=O)O)NC(=O)[C@H](CC(=O)O)NC3=O)NC1=O)CCCN2C(C)=O (stereo partly drawn) [I-591, Ac-PL3-Asp-Ile-B5-Asp-Glu-[AzAc]Lys-Ala-Phe-Gln-S8-Phe-BztA-Gln-NH2] | – | – | 2.348 | – | – | 0.064 | –
